# Test results: publication PMC11405510 (Scientific Reports, 2024)
# Molecular target: T1, Ha006a (Helicoverpa armigera, UniProt D5G3E0)
# T1 sequence (D5G3E0 25-548): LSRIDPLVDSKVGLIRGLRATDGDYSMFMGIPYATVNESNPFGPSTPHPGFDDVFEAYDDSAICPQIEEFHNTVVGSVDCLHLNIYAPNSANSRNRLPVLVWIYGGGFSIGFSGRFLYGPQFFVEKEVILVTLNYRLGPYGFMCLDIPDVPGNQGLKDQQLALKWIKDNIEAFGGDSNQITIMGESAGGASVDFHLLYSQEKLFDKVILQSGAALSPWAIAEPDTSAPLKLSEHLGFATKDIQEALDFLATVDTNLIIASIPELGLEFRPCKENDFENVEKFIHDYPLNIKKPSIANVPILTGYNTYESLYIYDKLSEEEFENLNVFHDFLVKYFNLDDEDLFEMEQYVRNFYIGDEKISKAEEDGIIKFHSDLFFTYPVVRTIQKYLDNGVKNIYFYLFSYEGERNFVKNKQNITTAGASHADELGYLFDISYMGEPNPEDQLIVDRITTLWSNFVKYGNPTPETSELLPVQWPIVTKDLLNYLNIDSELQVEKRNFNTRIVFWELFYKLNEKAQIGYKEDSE
# Assay: Differential scanning calorimetry of Ha006a-ligand complexes
# Format: binding
# Details: DSC; for Tm1 (°C) ± SE: first thermal transition, 50 μM protein, non-two-state fit; for Tm2 (°C) ± SE: second thermal transition; for Tm3 (°C) ± SE: third thermal transition
Structure (SMILES),Tm1 (°C) ± SE,ΔH (molar heat enthalpy) (first transition (Tm1)),ΔHv (van't Hoff enthalpy) (first transition (Tm1)),ΔHv/ΔH (first transition (Tm1)),Tm2 (°C) ± SE,ΔH (molar heat enthalpy) (second transition (Tm2)),ΔHv (van't Hoff enthalpy) (second transition (Tm2)),ΔHv/ΔH (second transition (Tm2)),Tm3 (°C) ± SE,ΔH (molar heat enthalpy) (third transition (Tm3)),ΔHv (van't Hoff enthalpy) (third transition (Tm3)),ΔHv/ΔH (third transition (Tm3))
"O=P(Oc1ccccc1)(Oc1ccccc1)Oc1ccccc1 [Triphenyl phosphate, reference compound]",Tm1 51.32 ± 1.70 °C,457000 kcal/mol,35900 kcal/mol,0.08,Tm2 67.66 ± 0.26 °C,1.31e+06 kcal/mol,66800 kcal/mol,0.05,Tm3 78.21 ± 0.44 °C,472000 kcal/mol,89500 kcal/mol,0.19
O=C(/C=C/C=C/c1ccc2c(c1)OCO2)N1CCCCC1 [Piperine],Tm1 51.30 ± 0.32 °C,218000 kcal/mol,43300 kcal/mol,0.20,Tm2 65.47 ± 0.33 °C,209000 kcal/mol,40800 kcal/mol,0.20,Tm3 80.80 ± 0.36 °C,44600 kcal/mol,40900 kcal/mol,0.92
CN1CCc2cc3c(cc2C(=O)Cc2ccc4c(c2C1)OCO4)OCO3 [Protopine],Tm1 49.93 ± 0.55 °C,630000 kcal/mol,43200 kcal/mol,0.07,Tm2 66.76 ± 0.33 °C,1.87e+06 kcal/mol,31500 kcal/mol,0.02,Tm3 86.29 ± 0.67 °C,783000 kcal/mol,40100 kcal/mol,0.05
"COc1cc(OC)c2c(=O)cc(-c3ccc(OC)c(OC)c3)oc2c1 [3′,4′,5,7-Tetramethoxyflavone]",Tm1 51.52 ± 0.25 °C,584000 kcal/mol,34000 kcal/mol,0.06,Tm2 79.01 ± 0.98 °C,957000 kcal/mol,35300 kcal/mol,0.04,Tm3 91.76 ± 0.43 °C,358000 kcal/mol,58800 kcal/mol,0.16
